Reference: patent publication US20070166547A1, “Use of a layer consisting of hydrophobic linear, or two-dimensional polycyclic aromatics as a barrier layer or an encapsulation and electric components constructed with a layer of this type and comprising organic polymers” (priority 2003, published 2007)

Experiments:
[1] = test system: aggregation of thrombocytes; experiment: ADP-induced aggregation of thrombocytes after intravenous administration (in vivo); design: species or system rabbit
Method: The experiments were carried out on male rabbits of the “Chinchilla” breed having a mass of 2.7±0.3 kg. 18-24 hours prior to the experiment they were deprived of feed while preserving free access to water.
To obtain plasma enriched with thrombocytes, blood was taken from a cut of a marginal vein of the rabbit ear, the sample was stabilized with 3.8% of sodium citrate solution in a ratio of 9:1 and centrifuged at 200 g (1000 rev/min) for 10 minutes. The top supernatant layer enriched with thrombocytes was transferred by an automatic dropper into a silicone test tube and kept at 37° C. The plasma enriched with thrombocytes contained, on the average, […]. If this content exceeded the specified 3×10^8 blood platelets in 1 liter, this sample was diluted to the necessary concentration with plasma deprived of thrombocytes, which was obtained by centrifuging blood at 650 g during 10 minutes.
The measurements of the optical density of the samples were made on two-channel aggregometer of the “Chronolog” Company (USA). A flask containing 490 mkl of plasma rich with thrombocytes was placed in a device, into which a magnetic agitator covered with Teflon was lowered. The index of maximum amplitude of aggregation (MA) in percent of a fall of the plasma optical density under effect of the aggregation inductor was recorded. The control index MA of plasma was compared with the MA of plasma incubated for 3 minutes with different concentrations of the compounds: from 10^−3 to 10^−7 in vitro experiments or with plasma obtained 15, 30, 60 and 120 minutes after intravenous administration of different doses of the compounds in vivo experiments.
The process of aggregation of thrombocytes was recorded with the help of a computer; on the monitor screen the there were depicted curves reflecting changes of the optical density of the plasma enriched which was taken as a standard 100% compared to the optical density of the non-thrombocyte plasma taken for 0% content of thrombocytes.
The antiaggregative capability of compounds 2, 15, 21, 37, according to the invention was tested in experiments in vivo. Introduced to the test animals intravenously were an aggregation inductor ADP at a concentration of 10^−5 M was and then the compounds according to the invention. The doses of the compounds were in a range from 15 to 60 mg/kg.
For leveling the different effects of the compounds in different days due the ambient temperature, humidity and other parameters, 2 animals of each series were taken for experiments every day. Under “series” there is understood a group of 6 animals used for studying one of the doses of the compounds.
The blood for obtaining plasma enriched with thrombocytes was taken from marginal vein of the rabbit ear: in the control group—directly before introducing the tested compounds; in investigated groups—15 minutes after introducing these compounds and then after 30, 60, 120 minutes and so on up to the moment when the effect of suppression of aggregation disappeared.
The quantity of thrombocytes was counted before the experiment and at the end thereof in each plasma sample.

[2] = Polarographic study of electrochemical reduction (electrochemical activity); type: physicochemical; settings: for number of electrons participating in the reduction: calculated with the Geirovsky-Ilkovich equation; for i, mkA (polarographic wave current) / −E1/2, V (half-wave potential vs SCE): 37° C., forward trace, average for the group; for i, mkA (polarographic wave current): 9·10^−4 M
Method in brief: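 DC polarography at 37 °C on a dropping mercury electrode (0.5 s drop) against SCE with a Pt auxiliary electrode. Compounds at 9·10^−4 M in N2-purged 2.0% NaCl at pH 7.0–7.6, scanned 0 to −0.5 V at 10.0 mV/s. E1/2 and ilim were determined graphically; electron number was derived by Heyrovsky–Ilkovič analysis.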

| SMILES | MA, %, After 15 minutes ([1]; dose 15.0 mg/kg intravenously) | MA, %, After 30 minutes ([1]; dose 15.0 mg/kg intravenously) | MA, %, After 60 minutes ([1]; dose 15.0 mg/kg intravenously) | MA, %, After 120 minutes ([1]; dose 15.0 mg/kg intravenously) | MA, %, After 15 minutes ([1]; dose 30.0 mg/kg intravenously) | MA, %, After 30 minutes ([1]; dose 30.0 mg/kg intravenously) | MA, %, After 60 minutes ([1]; dose 30.0 mg/kg intravenously) | MA, %, After 120 minutes ([1]; dose 30.0 mg/kg intravenously) | MA, %, After 15 minutes ([1]; dose 60.0 mg/kg intravenously) | MA, %, After 30 minutes ([1]; dose 60.0 mg/kg intravenously) | MA, %, After 60 minutes ([1]; dose 60.0 mg/kg intravenously) | MA, %, After 120 minutes ([1]; dose 60.0 mg/kg intravenously) | number of electrons participating in the reduction [2] | i, mkA (polarographic wave current) ([2]; pH 7.0) | −E1/2, V (half-wave potential vs SCE) ([2]; pH 7.0) | i, mkA (polarographic wave current) ([2]; pH 7.2) | i, mkA (polarographic wave current) ([2]; pH 7.4) | −E1/2, V (half-wave potential vs SCE) ([2]; pH 7.4) | i, mkA (polarographic wave current) ([2]; pH 7.6) | −E1/2, V (half-wave potential vs SCE) ([2]; pH 7.6) | also measured |
| --- | --- | --- | --- | --- | --- | --- | --- | --- | --- | --- | --- | --- | --- | --- | --- | --- | --- | --- | --- | --- | --- |
| Nc1ccnc2c(=O)n([C@@H]3O[C@H](CO)[C@@H](O)[C@H]3O)[nH]c(=O)c12 [Compound 2, 4-amino-7-(β-D-ribofuranosile)pyrido[2,3-d]-6H-pyridazine-5,8-dione] | 44.2 ± 2.0 % | 42.2 ± 1.6 % | 46.9 ± 1.7 % | 49.2 ± 2.0% | 45.3 ± 2.0 % | 43.7 ± 1.7 % | 40.1 ± 2.2 % | 59.7 ± 2.2% | 45.2 ± 1.2 % | 43.6 ± 2.0 % | 47.8 ± 1.5% | 48.0 ± 1.2% | – | – | – | – | – | – | – | – | – |
| Nc1cnc2c(=O)n([C@@H]3O[C@H](CO)[C@@H](O)[C@H]3O)[nH]c(=O)c2n1.[Na] [Compound 21, sodium salt of 3-amino-7-(β-D-ribofuranosile)pyrazine[2,3-d]-6H-pyridazine-5,8-dione] | 43.5 ± 1.7 % | 43.3 ± 1.7 % | 46.7 ± 1.5 % | 49.1 ± 1.7% | 46.7 ± 1.9 % | 45.4 ± 1.8 % | 45.0 ± 1.9% | 60.3 ± 2.1% | 45.1 ± 0.9 % | 43.2 ± 2.0 % | 47.3 ± 1.6% | 48.3 ± 1.5% | – | – | – | – | – | – | – | – | – |
| O=c1[nH]n([C@@H]2O[C@H](CO)[C@@H](O)[C@H]2O)c(=O)c2nc(O)cnc12.[Na].[Na] [Compound 23, disodium salt of 2-hydroxy-7-(β-D-ribofuranosile)pyrazine[2,3-Cl]-6H-pyridazine-5,8-dione] | – | – | – | – | – | – | – | – | – | – | – | – | 3.72 | 0.32 ± 0.03 mkA | 0.16 ± 0.02 V | 0.33 ± 0.04 mkA | 0.34 ± 0.03 mkA | 0.175 ± 0.01 V | 0.34 ± 0.02 mkA | 0.16 ± 0.015 V | −E1/2, V (half-wave potential vs SCE) ([2]; pH 7.2): 0.19 ± 0.02 V; half-wave potential more positive on reverse stroke than on forward stroke ([2]; reverse stroke vs forward stroke): 20.0 mV |
| Nc1ncc2c(=O)[nH][nH]c(=O)c2n1 [Compound 36, 2-amino-pyrimido[4,5-d]-6H-pyridazine-5,8-dione] | – | – | – | – | – | – | – | – | – | – | – | – | 3.5 | 0.30 ± 0.05 mkA | 0.08 ± 0.02 V | 0.26 ± 0.02 mkA | 0.30 ± 0.03 mkA | 0.085 ± 0.02 V | 0.30 ± 0.02 mkA | 0.09 ± 0.02 V | – |
